Reference: PMC10894237, “KDM3B inhibitors disrupt the oncogenic activity of PAX3-FOXO1 in fusion-positive rhabdomyosarcoma” (Nature Communications, 2024)

Columns and labels:
[1] = system: A673; test: cells; parameters: 72 h cell growth/viability dose-response in pediatric solid tumour lines and primary fibroblasts; settings: Homo sapiens, A673, 72 h; read-out: P3FI-63 EC50 (72 hr)
Description: (§1) The half-maximal effective concentrations (EC50) of P3FI-63 on FP-RMS cell lines RH4, RH30, and SCMC were in the single digit µM range (Fig. 1E). Next, we tested other pediatric solid cancer lines to determine broader applicability of P3FI-63.

[2] = system: TC-32; test: cells; parameters: 72 h cell growth/viability dose-response in pediatric solid tumour lines and primary fibroblasts; settings: Homo sapiens, TC-32, 72 h; read-out: P3FI-63 EC50 (72 hr)
Description: as §1

[3] = system: OSA; test: cells; parameters: 72 h cell growth/viability dose-response in pediatric solid tumour lines and primary fibroblasts; settings: Fibroblast, 72 h; read-out: P3FI-63 EC50 (72 hr)
Description: as §1

[4] = system: HU09; test: cells; parameters: 72 h cell growth/viability dose-response in pediatric solid tumour lines and primary fibroblasts; settings: Fibroblast, 72 h; read-out: P3FI-63 EC50 (72 hr)
Description: as §1

[5] = system: 7250; test: cells; parameters: 72 h cell growth/viability dose-response in pediatric solid tumour lines and primary fibroblasts; settings: 72 h, primary human fibroblast; read-out: P3FI-63 EC50 (72 hr), fibroblast
Description: as §1

[6] = system: CTR; test: cells; parameters: 72 h cell growth/viability dose-response in pediatric solid tumour lines and primary fibroblasts; settings: Fibroblast, 72 h; read-out: P3FI-63 EC50 (72 hr)
Description: as §1

[7] = molecular target: T1, KDM3B (Homo sapiens, UniProt Q7LBC6); test: cell-free TR-FRET demethylase inhibition assay (Eurofins); type: biochemical
[8] = molecular target: T1, KDM3B; test: SPR (Biacore T200); also WaterLOGSY and CPMG ligand-observed NMR, and enzyme inhibition (TR-FRET); type: binding; parameters: full-length KDM3B (His6-Avi-KDM3B) for SPR; enzymatic domain (truncated) for NMR

T1 sequence (Q7LBC6 2-1761): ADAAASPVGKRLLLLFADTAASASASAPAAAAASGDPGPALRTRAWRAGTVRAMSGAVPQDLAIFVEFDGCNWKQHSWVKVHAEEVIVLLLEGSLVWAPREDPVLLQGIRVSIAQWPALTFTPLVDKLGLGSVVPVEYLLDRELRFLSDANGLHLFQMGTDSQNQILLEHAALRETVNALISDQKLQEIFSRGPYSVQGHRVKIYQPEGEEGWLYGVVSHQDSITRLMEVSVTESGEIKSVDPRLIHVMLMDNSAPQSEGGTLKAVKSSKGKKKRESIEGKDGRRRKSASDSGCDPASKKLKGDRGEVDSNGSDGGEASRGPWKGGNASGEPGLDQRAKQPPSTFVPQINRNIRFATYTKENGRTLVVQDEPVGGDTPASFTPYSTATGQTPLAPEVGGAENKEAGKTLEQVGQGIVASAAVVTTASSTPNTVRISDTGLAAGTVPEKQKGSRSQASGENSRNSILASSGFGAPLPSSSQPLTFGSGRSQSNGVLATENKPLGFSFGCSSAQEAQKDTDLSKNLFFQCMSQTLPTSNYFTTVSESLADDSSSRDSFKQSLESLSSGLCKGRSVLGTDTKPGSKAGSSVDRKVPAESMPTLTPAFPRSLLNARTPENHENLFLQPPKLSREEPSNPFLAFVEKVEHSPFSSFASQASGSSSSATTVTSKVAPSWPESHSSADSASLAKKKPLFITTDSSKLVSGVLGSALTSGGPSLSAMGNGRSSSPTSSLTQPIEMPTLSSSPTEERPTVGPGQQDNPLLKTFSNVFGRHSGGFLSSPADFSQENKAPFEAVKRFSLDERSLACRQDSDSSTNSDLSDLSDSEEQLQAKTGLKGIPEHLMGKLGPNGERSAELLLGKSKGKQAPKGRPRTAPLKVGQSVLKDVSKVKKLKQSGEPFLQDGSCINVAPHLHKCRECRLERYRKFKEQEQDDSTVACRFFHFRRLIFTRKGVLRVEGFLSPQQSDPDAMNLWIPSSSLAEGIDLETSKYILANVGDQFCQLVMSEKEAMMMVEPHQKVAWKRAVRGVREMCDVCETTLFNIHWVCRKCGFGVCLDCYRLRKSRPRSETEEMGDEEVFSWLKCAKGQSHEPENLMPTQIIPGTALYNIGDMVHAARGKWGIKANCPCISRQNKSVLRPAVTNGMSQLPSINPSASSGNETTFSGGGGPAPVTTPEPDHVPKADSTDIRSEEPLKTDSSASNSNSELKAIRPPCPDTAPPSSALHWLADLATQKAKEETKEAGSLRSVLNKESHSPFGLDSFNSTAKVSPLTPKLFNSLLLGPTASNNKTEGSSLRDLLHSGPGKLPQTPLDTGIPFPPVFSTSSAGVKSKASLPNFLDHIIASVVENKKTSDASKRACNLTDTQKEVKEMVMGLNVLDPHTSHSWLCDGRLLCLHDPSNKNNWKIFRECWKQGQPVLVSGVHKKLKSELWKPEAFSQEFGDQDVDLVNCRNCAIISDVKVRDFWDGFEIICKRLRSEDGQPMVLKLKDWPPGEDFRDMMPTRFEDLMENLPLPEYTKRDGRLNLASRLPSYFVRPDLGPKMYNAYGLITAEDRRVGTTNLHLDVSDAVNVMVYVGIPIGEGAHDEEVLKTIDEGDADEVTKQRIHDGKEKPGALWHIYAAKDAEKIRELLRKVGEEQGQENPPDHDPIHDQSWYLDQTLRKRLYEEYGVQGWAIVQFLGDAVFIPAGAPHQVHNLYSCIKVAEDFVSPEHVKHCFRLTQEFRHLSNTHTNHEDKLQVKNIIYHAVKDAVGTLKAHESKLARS

| Structure (SMILES) | EC50 [1] [µM] | EC50 [2] [nM] | EC50 [3] [µM] | EC50 [4] [µM] | EC50 [5] [µM] | EC50 [6] [nM] | IC50 [7] [µM] | Kd [8] [µM] |
| --- | --- | --- | --- | --- | --- | --- | --- | --- |
| Cc1cc(C)cc(C(=O)NNC(=O)c2ccccn2)c1 [P3FI-63] | 3.7 | 1700 | 7.5 | 3.1 | 6.62 | 2920 | 7 | – |
| O=C(NNc1ccccn1)c1ccccn1 [P3FI-90] | – | – | – | – | – | – | – | 7.68 |
